In the supplement of paper PMC10307832:

What was measured:
Test in all cases: relative viability (nuclei count vs DMSO), 5 days (fraction); higher = more cells survive
[1] = compound: NS(=O)(=O)OC[C@@H]1C[C@@H](n2ccc3c(N[C@H]4CCc5ccccc54)ncnc32)C[C@@H]1O [MLN4924] + Cc1cc(Nc2cc(N3CCN(C)CC3)nc(Sc3ccc(NC(=O)C4CC4)cc3)n2)n[nH]1 [Tozasertib] (partner 0.1 µM)
In short: (§1)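 Lung cancer cell lines were pin-tool dosed in 1536-well plates on the day after seeding, with either a lone drug or a fixed anchor-drug dose plus five library-drug doses (not always all listed) in √10 steps. Nuclei were counted on 4× images after 5 days. Relative viability is the ratio of treated-well to vehicle-well nuclei counts, with each value a median of duplicate plates.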

[2] = compound: C1CC(C1)(C(=O)O)C(=O)O.[NH2-].[NH2-].[Pt+2] [Carboplatin] + CC1(C)CCC(c2ccc(Cl)cc2)=C(CN2CCN(c3ccc(C(=O)NS(=O)(=O)c4ccc(N[C@H](CCN5CCOCC5)CSc5ccccc5)c(S(=O)(=O)C(F)(F)F)c4)cc3)CC2)C1 [Navitoclax] (partner 0.5 µM)
In short: as §1

[3] = compound: CC[C@H](C)N1C=C(C2=C(C=C(C=C21)C3=CN=C(C=C3)N4CCNCC4)C(=O)NCC5=C(C=C(NC5=O)C)C)C [GSK126] + CC(C)C[C@H](NC(=O)[C@H](Cc1ccccc1)NC(=O)c1cnccn1)B(O)O [Bortezomib] (partner 0.002 µM)
In short: as §1

[4] = compound: CC[C@H](C)N1C=C(C2=C(C=C(C=C21)C3=CN=C(C=C3)N4CCNCC4)C(=O)NCC5=C(C=C(NC5=O)C)C)C [GSK126] + N=C(N)NC(=N)NCCc1ccccc1 [Phenformin] (partner 250 µM)
In short: as §1

Cell Line: UMC-11
- relative viability ([1]; first compound 0.04 µM): 0.205
- relative viability ([1]; first compound 0.1265 µM): 0.212
- relative viability ([1]; first compound 0.4 µM): 0.215
- relative viability ([1]; first compound 1.265 µM): 0.19
- relative viability ([1]; first compound 4 µM): 0.184
- relative viability ([2]; first compound 0.08 µM): 0.325
- relative viability ([2]; first compound 0.253 µM): 0.355
- relative viability ([2]; first compound 0.8 µM): 0.342
- relative viability ([2]; first compound 2.53 µM): 0.313
- relative viability ([2]; first compound 8 µM): 0.256
- relative viability ([3]; first compound 0.08 µM): 0.842
- relative viability ([3]; first compound 0.253 µM): 0.628
- relative viability ([3]; first compound 0.8 µM): 0.747
- relative viability ([3]; first compound 2.53 µM): 0.643
- relative viability ([3]; first compound 8 µM): 0.895
- relative viability ([4]; first compound 0.08 µM): 0.35
- relative viability ([4]; first compound 0.253 µM): 0.344
- relative viability ([4]; first compound 0.8 µM): 0.312
- relative viability ([4]; first compound 2.53 µM): 0.32
- relative viability ([4]; first compound 8 µM): 0.3
